Experiment [1] concerns KO99L-LUC cells (tPTEN−/− tumor). In words: In vivo growth of subcutaneous KO99L-LUC tumors in nude mice (volume, bioluminescence, immunohistochemistry). On the procedure: All mice in each experimental group were subcutaneous injected with 99KOL-LUC T-lymphoma cells (200 μL; 5.0±0.1×10^6) stably expressing a reporter luciferase gene. After two days post injection, mice were intraperitoneally administered COMPOUND-JP (50 mg/kg/day/5 days a week) which had been prepared by dissolving drug powder and mixing into saline (NaCl 0.9%). Body weights and tumor volumes were measured every five days. Tumor volumes were calculated according to the mathematical formula: V=(L*W^2)/2 (L:Length; W:Width). To conduct the bioluminescence imaging, mice received an intraperitoneal injection (150 μL, 30 mg/mL) of D-luciferin (Caliper Life Science) and were anesthetized via inhaled isoflurane (2.0%). Bioluminescence signals were monitored using the Photon imager (Biospace Lab) equipped with a highly sensitive cooled CCD camera; all images were collected 10 min post D-luciferin injection. Data were analyzed using total photon flux emission (photons/second) focused on the regions of interest (ROI) enveloping the tumor region.
Sections (4 μm) in paraffin blocks of dissected tumors were labeled with a primary rabbit phospho-S6RP antibody (#4858, Cell Signaling Technology). A second, anti-rabbit antibody conjugated with peroxidase (HRP) (SignalStain®, #8114, Cell Signaling Technology) was added to the sections before revelation with diaminobenzidine (DAB) as recommended by the manufacturer. For necrosis evaluation, sections were stained with hematoxylin/eosin/safran (HES). The images were analyzed and necrosis areas quantified using the ImageJ software (NIH).

For experiment [2], the system named is Jurkat T-ALL line. In words: Cell proliferation of Jurkat human T-ALL cells. The experiment is classed as cell-based. As to the method: (§1) Two different assays were employed: i) In a 96-well plate format, cells (4.0±0.1×10^4 per well; 100 μL) were incubated with effectors (48 h, 37° C.; n=4 per experiment) and then WST-1 reagent (10 μL; Roche Diagnostics) added to each well of 96-well plates, incubated, and the formazan production was measured at 490 nm; and ii) cells (2.0±0.1×10^4 per well; 100 μL) were incubated with effectors (48 h, 37° C.; n=4 per experiment) and then bromodeoxyuridine reagent (10 μL/well; Roche Diagnostics) was added to each well and incubated (8 h, 37° C.). The cells were then fixed, denatured and incubated with anti-BrdU-conjugated with peroxidase (POD) antibody (100 μL/well). Colorimetric substrate (TMB: tetramethyl-benzidine; 100 μL/well) was added and BrdU incorporation quantified via optical density measurement (450 nm) which corresponds to DNA synthesis and proliferating cells.

Experiment [3] relates to KO99L cells. In words: Cell death by flow cytometry after DAPI staining, KO99L cells. In kind it is cell-based, murine. The following applies: 48 h. (In general: A flow cytometer gives signals particle by particle.)
Experiment [4] concerns KO99L cells. In words: Mitochondrial trans-membrane potential (TMRE staining), KO99L cells. The experiment is classed as cell-based, murine. On the procedure: Mitochondrial trans-membrane potential (ψm) changes as a function of apoptotic events were measured using Tetra Methyl Rhodamine Ethyl Ester Perchlorate assay (TMRE; Molecular Probes). […] Thereafter, the cells were washed twice with PBS and then stained with DAPI (Sigma-Aldrich, 1.0 μg/mL) and examined via a MACSQuant Analyser (Miltenyi Biotech) and the data evaluated via FlowJo software.

In experiment [5] the test system is KO99L cells. In words: Annexin-V / DAPI apoptosis assay, KO99L cells. The following applies: 48 hr. In kind it is cell-based, murine. As to the method: Apoptosis assessment was performed by measuring phosphatidyl-serine membrane redistribution via annexin-V-FITC (Invitrogen). Cells (5.0±0.1×10^5 per well; 2.0 mL) were incubated with effectors, and re-suspended in staining solution (110 μL; Annexin-V ( 1/10) and incubated in the dark (15 min, RT). […] Basal apoptosis and necrosis were determined on control untreated cells.

For experiment [6], the system named is CHOP / mTOR. In words: Western blot of CHOP induction and S6RP phosphorylation in KO99-RJ cells. In kind it is cell-based, murine. As to the method:
(§2) Cell extracts were prepared using a cell lysis buffer (50 mM HEPES, pH 7.4, 150 mM NaCl, 20 mM EDTA, 100 mM NaF, 10 mM Na3VO4, 0.5% nonyl phenoxypolyethoxylethanol (NP40) supplemented with a cocktail of protease inhibitors. After SDS-PAGE separation and transfer to nitrocellulose immunoblotting was performed using the following antibodies against: Akt (Cell Signaling Technologies, #9272), CHOP (#2895), cleaved caspase 3 (#9664), c-Myc (#9402), eIF2a (#9721), 4EBP1 (#9644), LC3A/B (#12741), PARP (#9542), pJnk (T183/Y185) (#9251), pSer235-236-S6RP (#4856), pSer473-Akt (#9271), pSer65-4EBP1 (#9451) and S6RP (#2217); Bax (Sigma-Aldrich, B8429); PUMA (Abcam, ab54288); Bak (Millipore, 06536); ATF4 (Santa Cruz Biotechnologies, sc200), GADD34 (sc8327), Hsp60 (sc-1722), Hsp90 (sc-13119) and XBP1 (sc-7160); ATF6 (Imgenex, IMG-273).
A general note: A western blot detects proteins with antibodies after separation by electrophoresis.

For experiment [7], the system named is tPTEN−/− cells. In words: Global protein synthesis (data not shown). The experiment is classed as cell-based, murine.
Experiment [8] relates to KO99-RJ cells. In words: WST-1 cell viability of COMPOUND-JP-resistant KO99-RJ cells. The experiment is classed as cell-based, murine. The following applies: Mus musculus, 48 h, read-out: decrease in cell viability. On the procedure: as §1
A general note: Formazan colour is commonly taken as a measure of viable cells.

The subject of experiment [9] is KO99-RJ cells. In words: Cell death (PI staining) of KO99-RJ cells. In kind it is cell-based, murine. The following applies: 48 h.
Experiment [10] concerns CHOP. In words: Western blot of CHOP protein levels, KO99L cells. The experiment is classed as cell-based, murine. On the procedure:
as §2

For experiment [11], the system named is KO99L cells (tPTEN−/− tumor cell line). In words: WST-1 cell viability assay on KO99L cells. In kind it is cell-based, murine. As to the method:
as §1

Experiment [12] has as its system LC3. In words: Western blot of LC3 processing (autophagy), KO99L cells. The conditions noted are these: 10.0 μM. In kind it is cell-based, murine. As to the method: as §2
For experiment [13], the system named is Bcl2 family members. In words: Western blot of Bcl2 family members, KO99L cells. The experiment is classed as cell-based, murine. The conditions noted are these: 10.0 μM, starting at 6.0 h. As to the method:
as §2

Turning to `Nc1cc(COc2c(Cl)cc(C[C@H](N)C(=O)O)cc2Cl)c2oc(-c3ccccc3)nc2c1` [COMPOUND-JP, O-(5-amino-2-phenylbenzoxazole-7-yl)methyl-3,5-dichloro-L-tyrosine], in experiment [1] (50 mg/kg/day, day 18, vs vehicle treated group, p<0.05), the “decrease of mean tumor volume” value is listed as 45%. Besides, the “decrease of tumor luminescence” value in experiment [1] (50 mg/kg/day, p<0.05) turned out to be 59%. In addition, the “necrotic response within the tumors” value in experiment [1] (treated mice, untreated 4.6+/−0.5%) was 10.5+/−0.5%. For the same compound, the “pS6RP staining in tumors” value in [1] (tumors from treated mice, 50 mg/kg/day) was “dramatically decreased”. Also, the proliferation result in experiment [2] is listed as “alter”. Further, the “decrease of COMPOUND-JP induced cell death upon EAA addition” value in experiment [3] is given as 2.5 fold. Besides, the “Mitonchondrial Outer Membrane Permeabilization (MOMP)” value in [4] (5.0 and 10.0 μM) was “cause MOMP”. Besides, the mitochondrial depolarization in [4] (highest concentration tested (20.0 μM), 48 hr) is recorded as 70%. Also, the “levels of apoptosis (annexin-V+ and annexin-V+/DAPI+) compared to control” value in [5] (10.0 μM) is listed as 2.8 fold; in experiment [5] (20.0 μM), 3.8 fold. Also, in [6], the “integrated stress response (CHOP induction)” value is reported as “failed to trigger the integrated stress response”. The “mTOR inhibition (S6RP phosphorylation)” value in experiment [6] is “failed to inhibit mTOR”. In addition, in experiment [7], the “interference with global protein synthesis” value is recorded as “did not observe any interference”. The cytotoxicity at 40 µM in experiment [8] is around 40%; in experiment [11] (Mus musculus, KO99-S (parental KO99L), 40 μM, 48 h, read-out: decrease in cell viability), 95 to 100%. In addition, in experiment [9], the cell death result is given as “far less efficient”. Moreover, the “COMPOUND-JP mediated CHOP induction upon EAA supplementation” value in [10] (10 μM, complete medium plus EAA) is “prevented CHOP induction”. The “CHOP expression, time course” value in experiment [10] (FIG. 5A, COMPOUND-JP 10.0 μM, L-Asp, Erw 2.5 units/ml, 2.0-24 h) is “rapidly induced CHOP expression”. Moreover, the CHOP induction entry in [10] (FIG. 5B, COMPOUND-JP 5.0 and 10.0 μM, L-Asp 2.5 units/ml, rapamycin 10.0 nM, MK-2206 10.0 μM, KU0063794 10.0 μM) is “profound and COMPOUND-JP dose dependent induction”. For the same compound, the cell viability result in [11] (KO99L cells, 2.5-10.0 μM, 48 h) is “dose-dependent decrease”. Besides, the “reversal of the viability decrease by Essential Amino Acids (EAA) in the medium” value in experiment [11] (KO99L cells, 2.5-10.0 μM, NEAA no rescue) is “partially reversed”. The IC50 in experiment [11] (Mus musculus, KO99L tPTEN−/− cells, 48 h, read-out: IC50, cell viability (drug concentration to kill half of the cells)) came out at 2400 nM. For the same compound, the LC3-II accumulation result in experiment [12] was “stimulated LC3-II accumulation”. In experiment [13], the “protein levels of four pro-apoptotic members: Bak, Bax, PUMA and Bim” value was “increased protein levels”.

The values are drawn from patent US10172835B2, “Anticancer agent composition” (J-Pharma Co., Ltd., priority 2014, dated 2019).
